Data as given in patent publication US9862726B2, “Opioid receptor modulating oxabicyclo[2.2.2]octane morphinans” (PURDUE PHARMA L.P., priority 2013, dated 2018).
Where two headings read alike, the source gives them in different places.

Tests used:
[1] = target: T1, μ-opioid receptor (Homo sapiens (Human), UniProt P35372); test: μ-opioid receptor radioligand dose-displacement binding assay (HEK-293 cells)
Experimental: Radioligand dose-displacement binding assays for μ-opioid receptors used 0.3 nM [^3H]-diprenorphine (Perkin Elmer, Shelton, Conn.), with […] membrane protein/well in a final volume of 500 μl binding buffer (10 mM MgCl2, 1 mM EDTA, 5% DMSO, 50 mM HEPES, pH 7.4). Reactions were carried out in the absence or presence of increasing concentrations of unlabeled naloxone. All reactions were conducted in 96-deep well polypropylene plates for 2 hours at room temperature. Binding reactions were terminated by rapid filtration onto 96-well Unifilter GF/C filter plates (Perkin Elmer, Shelton, Conn.), presoaked in 0.5% polyethylenimine using a 96-well tissue harvester (Perkin Elmer, Shelton, Conn.) followed by performing three filtration washes with 500 μl of ice-cold binding buffer. Filter plates were subsequently dried at 50° C. for 2-3 hours. BetaScint scintillation cocktail (Perkin Elmer, Shelton, Conn.) was added (50 μl/well), and plates were counted using a Packard Top-Count for 1 min/well. The data were analyzed using the one-site competition curve fitting functions in GraphPad PRISM™ v. 3.0 or higher (San Diego, Calif.), or an in-house function for one-site competition curve-fitting.
(§1) In TABLE 3, binding affinity of certain Compounds of the Invention to the μ- and κ-opioid receptors was determined as described above using HEK-293 cells.

[2] = target: recombinant human kappa opioid receptor (κ) (Homo sapiens (Human), UniProt P41145); test: κ-opioid receptor radioligand dose-displacement binding assay (HEK-293 cells)
Experimental: Membranes from HEK-293 cells, CHO cells or U-2 OS cells expressing the recombinant human kappa opioid receptor (κ) were prepared by lysing cells in ice cold hypotonic buffer (2.5 mM MgCl2, 50 mM HEPES, pH 7.4) (10 mL/10 cm dish) followed by homogenization with a tissue grinder/Teflon pestle. Membranes from a cell line naturally expressing kappa opioid receptor can also be used. Membranes were collected by centrifugation at 30,000×g for 15 min at 4° C. and pellets were resuspended in hypotonic buffer to a final concentration of 1-3 mg/mL. Protein concentrations were determined using the BioRad protein assay reagent with bovine serum albumen as standard. Aliquots of κ receptor membranes were stored at −80° C.
Radioligand dose displacement assays used 0.4 nM [^3H]-U69,593 (GE Healthcare, Piscataway, N.J.; 40 Ci/mmole) with 15 μg membrane protein (recombinant κ opioid receptor expressed in HEK 293 cells; in-house prep) in a final volume of 200 μl binding buffer (5% DMSO, 50 mM Trizma base, pH 7.4). Non-specific binding was determined in the presence of 10 μM unlabeled naloxone or U69,593. All reactions were performed in 96-well polypropylene plates for 1 hour at a temperature of about 25° C. Binding reactions were terminated by rapid filtration onto 96-well Unifilter GF/C filter plates (Perkin Elmer, Shelton, Conn.) presoaked in 0.5% polyethylenimine (Sigma). Harvesting was performed using a 96-well tissue harvester (Perkin Elmer, Shelton, Conn.) followed by five filtration washes with 200 μl ice-cold binding buffer. Filter plates were subsequently dried at 50° C. for 1-2 hours. Fifty μl/well scintillation cocktail (Perkin Elmer, Shelton, Conn.) was added and plates were counted in a Packard Top-Count for 1 min/well.
as §1

[3] = target: T1, μ-opioid receptor; test: μ-opioid receptor [35S]GTPγS functional assay (HEK-293 cells); assay type: biochemical
Experimental: (§2) [^35S]GTPγS functional assays were conducted using freshly thawed μ-receptor membranes prepared in-house from a cell line expressing recombinant μ opioid receptor in a HEK-293, CHO or U-2 OS cell background, or purchased from a commercial source (Perkin Elmer, Shelton, Conn.; or DiscovRx, Fremont, Calif.). Assay reactions were prepared by sequentially adding the following reagents to binding buffer (100 mM NaCl, 10 mM MgCl2, 20 mM HEPES, pH 7.4) on ice (final concentrations indicated): membrane protein (0.026 mg/mL), saponin ([…]), GDP ([…]) and [^35S]GTPγS (0.20 nM; Perkin Elmer, Shelton, Conn.). The prepared membrane solution (190 μl/well) was transferred to 96-shallow well polypropylene plates containing 10 μl of 20× concentrated stock solutions of the agonist [D-Ala^2, N-methyl-Phe^4 Gly-ol^5]-enkephalin (DAMGO) prepared in dimethyl sulfoxide (DMSO). Plates were incubated for 30 min at about 25° C. with shaking. Reactions were terminated by rapid filtration onto 96-well Unifilter GF/B filter plates (Perkin Elmer, Shelton, Conn.) using a 96-well tissue harvester (Perkin Elmer, Shelton, Conn.) followed by three filtration washes with 200 μl of ice-cold wash buffer (10 mM NaH2PO4, 10 mM Na2HPO4, pH 7.4). Filter plates were subsequently dried at 50° C. for 2-3 hours. BetaScint scintillation cocktail (Perkin Elmer, Shelton, Conn.) was added (50 μl/well) and plates were counted using a Packard Top-Count for 1 min/well. Data were analyzed using the sigmoidal dose-response curve fitting functions in GraphPad PRISM v. 3.0, or an in-house function for non-linear, sigmoidal dose-response curve-fitting. [^35S]GTPγS functional assays can also be conducted using freshly thawed μ-receptor membranes prepared from a cell line expressing recombinant μ opioid receptor in a CHO-K1 cell background.
(§3) μ GTP EC50 is the concentration of a compound providing 50% of the maximal response for the compound at a μ-opioid receptor.
(§4) μ GTP Emax (%) is the maximal effect elicited by a compound relative to the effect elicited by DAMGO, a standard μ agonist.
In TABLE 4, activity response of certain Compounds of the Invention to the μ- and κ-opioid receptors was determined as described above for functional assays using HEK-293 cells.

[4] = target: T1, μ-opioid receptor; test: μ-opioid receptor functional assay (U-2 OS cells); assay type: biochemical
Experimental: as §2, §3, §4

[5] = target: κ-opioid receptor (Homo sapiens (Human), UniProt P41145); test: κ-opioid receptor functional assay (U-2 OS cells); assay type: biochemical
Experimental: Functional [^35S]GTPγS binding assays were conducted as follows. κ opioid receptor membrane solution was prepared by sequentially adding final concentrations of 0.026 μg/μl κ membrane protein (in-house), 10 μg/mL saponin, 3 μM GDP and 0.20 nM [^35S]GTPγS to binding buffer (100 mM NaCl, 10 mM MgCl2, 20 mM HEPES, pH 7.4) on ice. The prepared membrane solution (190 μl/well) was transferred to 96-shallow well polypropylene plates containing 10 μl of 20× concentrated stock solutions of agonist prepared in DMSO. Plates were incubated for 30 min at a temperature of about 25° C. with shaking. Reactions were terminated by rapid filtration onto 96-well Unifilter GF/B filter plates (Perkin Elmer, Shelton, Conn.) using a 96-well tissue harvester (Packard) and followed by three filtration washes with 200 μl ice-cold binding buffer (10 mM NaH2PO4, 10 mM Na2HPO4, pH 7.4). Filter plates were subsequently dried at 50° C. for 2-3 hours. Fifty μl/well scintillation cocktail (Perkin Elmer, Shelton, Conn.) was added and plates were counted in a Packard Top-Count for 1 min/well.
κ GTP EC50 is the concentration of a compound providing 50% of the maximal response for the compound at a κ receptor.
κ GTP Emax (%) is the maximal effect elicited by a compound relative to the effect elicited by U69,593.
The following TABLE 5 provides results on the activity response of certain Compounds of the Invention at the μ- and κ-opioid receptors determined as described above using U-2 OS cells.

[6] = HEK-293 cells, relative to DAMGO
[7] = U-2 OS cells, relative to DAMGO
[8] = U-2 OS cells, relative to U69,593
[9] = U-2 OS cells, read-out: Opioid Receptor μ EC50
[10] = U-2 OS cells, read-out: Opioid Receptor κ EC50

Row | Compound | Ki [1] [nM] | Ki [2] [nM] | EC50 [3] [µM] | Emax [3, 6] [%] | EC50 [4] [nM] | Emax [4, 7] [%] | EC50 [5] [nM] | Emax [5, 8] [%] | EC50 ([3]; HEK-293 cells, read-out: Opioid Receptor μ EC50) [µM] | Opioid Receptor μ Emax (%) [3, 6] [%] | EC50 [4, 9] [nM] | Opioid Receptor μ Emax (%) [4, 7] [%] | EC50 [5, 10] [nM] | Opioid Receptor κ Emax (%) [5, 8] [%] | EC50 ([3]; HEK-293 cells, bound given in μM, read-out: Opioid Receptor μ EC50) [µM]
1 | COc1ccc2c(c1)[C@]13CCN(CC4CC4)[C@H](C2)[C@]12CC[C@@](NC(=O)CCc1ccccc1)(CO2)C3 [Compound 19, N-((4bR,6S,8aS,9R)-11-(cyclopropylmethyl)-3-methoxy-5,6,7,8,9,10-hexahydro-9,4b-(epiminoethano)-8a,6-(epoxymethano)phenanthren-6-yl)-3-phenylpropanamide] | 9.26 ± 3.2 | 1.58 ± 0.44 | 0.0412 ± 0.0128 | 29.8 ± 1.96 | 1.37 ± 0.11 | 102 ± 5.7 | 2.84 ± 0.33 | 109.7 ± 0.33 | – | – | – | – | – | – | –
2 | COc1ccc2c(c1)[C@]13CCN(CC4CC4)[C@H](C2)[C@]12CC[C@@](NC(=O)CC(F)(F)F)(CO2)C3 [Compound 23, N-((4bR,6S,8aS,9R)-11-(cyclopropylmethyl)-3-methoxy-5,6,7,8,9,10-hexahydro-9,4b-(epiminoethano)-8a,6-(epoxymethano)phenanthren-6-yl)-3,3,3-trifluoropropanamide] | 136 ± 35.7 | 0.66 ± 0.22 | 0.419 ± 0.108 | 39.5 ± 2.1 | 21.6 ± 1.38 | 98.7 ± 1.45 | 1.79 ± 0.25 | 115 ± 3.06 | – | – | – | – | – | – | –
3 | 1-Chlorophenyl-3-((4bR,6S,8aS,9R)-11-(cyclopropylmethyl)-3-methoxy-5,6,7,8,9,10-hexahydro-9,4b-(epiminoethano)-8a,6-(epoxymethano)phenanthren-6-yl)urea [Compound 25] | 3.51 ± 0.45 | 2.56 ± 0.36 | – | – | – | – | – | – | 0.0866 ± 0.0115 | 18.3 ± 0.88 | 4.33 ± 0.15 | 99.7 ± 0.88 | 16.1 ± 0.82 | 121.3 ± 4.67 | –
4 | COc1ccc2c(c1)[C@]13CCN(CC4CC4)[C@H](C2)[C@]12CC[C@@](NC(=O)C1CC1)(CO2)C3 [Compound 22, N-((4bR,6S,8aS,9R)-11-(cyclopropylmethyl)-3-methoxy-5,6,7,8,9,10-hexahydro-9,4b-(epiminoethano)-8a,6-(epoxymethano)phenanthren-6-yl)cyclopropanecarboxamide] | 126 ± 20.7 | 0.3 ± 0.055 | 0.939 ± 0.394 | 18 ± 0.41 | 71.2 ± 10.8 | 90.7 ± 2.73 | 0.9 ± 0.096 | 111 ± 2.6 | – | – | – | – | – | – | –
5 | COc1ccc2c(c1)[C@]13CCN(CC4CC4)[C@H](C2)[C@]12CC[C@@](NC(=O)c1ccc(Cl)cc1)(CO2)C3 [Compound 20, N-((4bR,6S,8aS,9R)-11-(cyclopropylmethyl)-3-methoxy-5,6,7,8,9,10-hexahydro-9,4b-(epiminoethano)-8a,6-(epoxymethano)phenanthren-6-yl)-4-chlorobenzamide] | 24.7 ± 3.5 | 0.6 ± 0.098 | 0.0524 ± 0.0117 | 20.2 ± 0.48 | 3.23 ± 0.13 | 102 ± 2.85 | 3.24 ± 0.082 | 115 ± 2.85 | – | – | – | – | – | – | –
6 | COc1ccc2c(c1)[C@]13CCN(CC4CC4)[C@H](C2)[C@]12CC[C@@](NCc1ccccc1)(CO2)C3 [Compound 10, (4bR,6S,8aS,9R)-N-benzyl-11-(cyclopropylmethyl)-3-methoxy-5,6,7,8,9,10-hexahydro-9,4b-(epiminoethano)-8a,6-(epoxymethano)phenanthren-6-amine] | 25.9 ± 5.36 | 0.026 | 0.0533 ± 0.00393 | 31.7 ± 1.67 | 2.08 ± 0.12 | 110 ± 2.52 | 0.23 ± 0.01 | 107 ± 5.36 | – | – | – | – | – | – | –
7 | COc1ccc2c(c1)[C@]13CCN(CC4CC4)[C@H](C2)[C@]12CC[C@@](NCC1CCCCC1)(CO2)C3 [Compound 11, (4bR,6S,8aS,9R)—N-(cyclohexylmethyl)-11-(cyclopropylmethyl)-3-methoxy-5,6,7,8,9,10-hexahydro-9,4b-(epiminoethano)-8a,6-(epoxymethano)phenanthren-6-amine] | 0.93 ± 0.11 | 0.052 ± 0.015 | 0.00178 ± 5e-05 | 75.7 ± 4.1 | 0.033 | 101 ± 2.08 | 0.042 | 101.3 ± 0.88 | – | – | – | – | – | – | –
8 | COc1ccc2c(c1)[C@]13CCN(CC4CC4)[C@H](C2)[C@]12CC[C@@](NS(=O)(=O)c1ccc(Cl)cc1)(CO2)C3 [Compound 24, 4-Chloro-N-((4bR,6S,8aS,9R)-11-(cyclopropylmethyl)-3-methoxy-5,6,7,8,9,10-hexahydro-9,4b-(epiminoethano)-8a,6-(epoxymethano)phenanthren-6-yl)-benzenesulfonamide] | 0.29 ± 0.043 | 0.057 ± 0.01 | > 20 | 6 | 0.25 ± 0.014 | 71.7 ± 0.67 | 0.11 ± 0.011 | 114 ± 2.73 | – | – | – | – | – | – | –
9 | COc1ccc2c(c1)[C@]13CCN(CC4CC4)[C@H](C2)[C@]12CC[C@@](N(Cc1ccccc1)Cc1ccccc1)(CO2)C3 [Compound 7, (4bR,6S,8aS,9R)—N,N-dibenzyl-11-(cyclopropylmethyl)-3-methoxy-5,6,7,8,9,10-hexahydro-9,4b-(epiminoethano)-8a,6-(epoxymethano)phenanthren-6-amine] | 64.3 ± 21.6 | 5.35 ± 0.91 | – | 5.67 ± 1.86 | – | 84.3 ± 2.85 | – | 112 ± 3.93 | – | – | 26.4 ± 3.96 | – | 2.99 ± 0.33 | – | > 20
